According to PMC3621900 (Nature Communications, 2013):

Test system: nicotinic acetylcholine receptor (nAChR)
Test: whole-cell patch clamp
Set-up: species or system Apis mellifera

Q: With `O=[N+]([O-])NC1=NCCN1Cc1ccc(Cl)nc1` [imidacloprid] as the compound, how does the IC50 read?
A: 295 nM
